Data taken from patent publication US20250025438A1, “Derivative of aspartic acid and use thereof in treatment of metabolic diseases such as hepatic fibrosis and non-alcoholic hepatitis” (SHENZHEN JINGTAI TECHNOLOGY CO., LTD., priority 2021, published 2025).
Counter-ions that a name gives are not always drawn. Where a SMILES comes first, the peptide text is derived from it.

Experiments:
Type in all cases: cell-based
COL3A1 = assay: In vitro efficacy in semi-activated LX2 cells, qPCR: COL3A1; conditions: 48 hours, Q-PCR; for inhibition at 50 µM: LX-2, 50 µM; for inhibition at 12.5 µM: LX-2, test concentration 12.5 μM; for inhibition at 100 µM: LX-2, test concentration 100 μM
Description: (§1) Test compounds were added to the LX-2 cells respectively, and total RNA in the cells was extracted 48 hours later. This experiment was performed strictly in accordance with the instructions of the Total RNA Kit. The steps were as follows (note: this experiment was performed on ice throughout the entire process, and special RNase-free tips were used throughout the entire process): • 1) The 12-well cell culture plate was taken out from the incubator, the cell culture medium was discarded, the cells were washed twice with 1 mL of 1×PBS, and a negative pressure suction device was used to fully remove PBS; • 2) 350 μL of TRK Lysis Buffer mixture/well was prepared as needed (mixture preparation method: 1 mL of TRKLysis Buffer+20 μL of β-mercaptoethanol), vortexed and mixed well. 350 μL was added to each well of the 12-well cell culture plate, and allowed to stand at room temperature for 5 minutes to fully lyse the cells; • 3) 70% ethanol/well was prepared as needed, vortexed and mixed well. 350 μL was added to each well of the 12-well cell culture plate, mixed well by shaking, and transferred to the spin column (spin column+collection tube were assembled); • 4) Centrifugation was performed at 4° C., 12000 g for 60 sec. The waste liquid was discarded after centrifugation, while the spin column was kept; • 5) 500 μL of RNA Wash Buffer I was added, centrifuged at 4° C., 12000 g for 60 sec, the waste liquid was discarded after centrifugation, and the collection column was kept; • 6) 500 μL of RNA Wash Buffer II (confirmed that ethanol had been added) was added, centrifuged at 4° C., 12000 g for 60 sec, the waste liquid was discarded after centrifugation, and the collection column was kept; • 7) step 6) was repeated once again, centrifugation was performed at 4° C., 12000 g for 90 sec, the waste liquid was discarded after centrifugation, and the collection column was kept; • 8) Centrifugation was performed at 4° C., 12000 g for 120 sec to ensure that the spin column was fully dried; • 9) The dried spin column was inserted into a new 1.5 mL EP tube, and 30 μL of DEPC water was added to the membrane in the center of the spin column. It should be careful not to touch the EP tube cover in this step. It was allowed to stand at room temperature for 5 minutes to ensure that the RNA was fully dissolved in DEPC water. Centrifugation was performed at 4° C., 12000 g for 60 sec, and the EP tube was kept; • 10) NanoDrop ultra-micro-volume spectrophotometer was used to detect RNA concentration;
(§2) 5.2 Reverse transcription of RNA into cDNA: According to the instructions of PrimeScript™ RT reagent Kit (Perfect Real Time), the specific experimental steps were as follows:
(§3) 5.3 Q-PCR detection of target gene expression: According to the instructions of Power SYBR® Green PCR Master Mix, the specific operations were as follows:
(§4) After the reaction was completed, the amplification curve and dissolution curve of Q-PCR were confirmed, and the relative quantification method ([…]) was used to perform data analysis on the experimental results.
(§5) LX2 cells were passaged and plated normally. […] After 48 hours, the cells were collected, total RNA was extracted, and Q-PCR was used to detect the changes in the mRNA expression levels of liver fibrosis-related genes (ACTA2 encoding α-SMA, COL1A1 and COLIA2 encoding collagen I, COL3A1 encoding collagen III, SMAD3 encoding Smad3) and inflammation-related genes (IL1β encoding IL-1β, TNFα encoding TNFα) (for specific methods, see 5. Q-PCR detection of target gene expression as described above). α-SMA was a marker of hepatic stellate cell activation, and collagen I and collagen III were the main components of extracellular matrix deposition.

COL1A1 = assay: In vitro efficacy in semi-activated LX2 cells, qPCR: COL1A1; conditions: 48 hours, Q-PCR; for inhibition at 12.5 µM: LX-2, test concentration 12.5 μM; for inhibition at 50 µM: LX-2, 50 µM; for inhibition at 100 µM: LX-2, test concentration 100 μM
Description: as §1, §2, §3, §4, §5

Smad3 = assay: In vitro efficacy in semi-activated LX2 cells, qPCR: Smad3; conditions: 48 hours, Q-PCR; for inhibition at 50 µM: LX-2, 50 µM
Description: as §1, §2, §3, §4, §5

α-SMA = assay: In vitro efficacy in semi-activated LX2 cells, qPCR: α-SMA; conditions: 48 hours, Q-PCR; for inhibition at 50 µM / inhibition at 100 µM / inhibition at 12.5 µM: read-out: α-SMA mRNA inhibition rate; for inhibition of the expression of α-SMA at the mRNA level: Table 2; for inhibition at 100 µM: test concentration 100 μM
Description: as §1, §2, §3, §4, §5

IL-1β = assay: In vitro efficacy in semi-activated LX2 cells, qPCR: IL-1β; conditions: 48 hours, Q-PCR
Description: as §1, §2, §3, §4, §5

[1] = test system: collagen I and collagen III; assay: Semi-activated LX2 cells, qPCR: collagen I and collagen III at the mRNA level; conditions: 48 hours, Q-PCR, Table 2
Description: as §1, §3
LX2 cells were passaged and plated normally. After adherent growth for 12 hours, 50 µM of the test compound was added. After 48 hours, the cells were collected, total RNA was extracted, and Q-PCR was used to detect the changes in the mRNA expression levels of liver fibrosis-related genes (ACTA2 encoding α-SMA, COL1A1 and COLIA2 encoding collagen I, COL3A1 encoding collagen III, SMAD3 encoding Smad3) and inflammation-related genes (IL1β encoding IL-1β, TNFα encoding TNFα) (for specific methods, see 5. Q-PCR detection of target gene expression as described above). α-SMA was a marker of hepatic stellate cell activation, and collagen I and collagen III were the main components of extracellular matrix deposition. […]

[2] = Homo sapiens, read-out: COL3A1 mRNA inhibition rate
[3] = Homo sapiens, read-out: COL1A1 mRNA inhibition rate
[4] = Homo sapiens, read-out: Smad3 mRNA inhibition rate

COC(=O)C[C@H](NC(=O)[C@H](C)N)C(=O)O [Compound 67, (S)-2-((S)-2-aminopropionamido)-4-methoxy-4-oxobutyric acid hydrochloride] (HELM PEPTIDE1{A.D}|CHEM1{[CO[*:1]]}$PEPTIDE1,CHEM1,2:R3-1:R1$$$V2.0)
inhibition at 50 µM (COL3A1; [2]): 1 to 10%

N[C@@H](CC(=O)O)C(=O)OCc1ccccc1 [Compound 20]
COL1A1 mRNA inhibition rate (COL1A1; test concentration 12.5 μM): E (E represented that the inhibition rate was 1% to 10%) | COL3A1 mRNA inhibition rate (COL3A1; test concentration 12.5 μM): E (E represented that the inhibition rate was 1% to 10%) | Smad3 mRNA inhibition rate (Smad3; test concentration 12.5 μM): E (E represented that the inhibition rate was 1% to 10%) | α-SMA mRNA inhibition rate (α-SMA; test concentration 12.5 μM): E (E represented that the inhibition rate was 1% to 10%)

COC(=O)[C@H](CC(=O)O)NC(=O)OCC1c2ccccc2-c2ccccc21 [Compound 5]
inhibition at 50 µM (IL-1β; Homo sapiens, LX-2, 50 µM, read-out: IL-1β mRNA inhibition rate): 1 to 10%

COC(=O)C[C@H](N)C(=O)OCOC(=O)[C@@H](N)CC(=O)OC(C)C [Compound 71, 1-((((S)-2-amino-4-isopropoxy-4-oxobutyryl)oxy)methyl) 4-methyl L-aspartic acid ester hydrochloride]
inhibition of the expression of collagen I and collagen III at the mRNA level [1]: could inhibit | inhibition at 12.5 µM (COL1A1; [3]): 10 to 25% | inhibition at 12.5 µM (COL3A1; [2]): 1 to 10%

N[C@@H](CC(=O)O)C(=O)OCOC(=O)[C@@H](N)CC(=O)O [Compound 57, (3S,3'S)-4,4′-(methylenebis (oxy))bis (3-amino-4-oxobutyric acid) hydrochloride]
inhibition at 25 µM (Smad3; Homo sapiens, LX-2, test concentration 25 μM, read-out: Smad3 mRNA inhibition rate): 1 to 10%

CC(C)(C)OC(=O)N[C@@H](CC(=O)O)C(=O)OCc1ccccc1 [Compound 21]
inhibition of the expression of collagen I and collagen III at the mRNA level [1]: could inhibit | inhibition at 50 µM (COL1A1; [3]): 1 to 10% | inhibition at 50 µM (COL3A1; [2]): 10 to 25% | inhibition at 50 µM (Smad3; [4]): 1 to 10% | inhibition at 50 µM (α-SMA): 1 to 10%

N[C@@H](CC(=O)NC(c1ccccc1)(c1ccccc1)c1ccccc1)C(=O)O [Compound 27]
inhibition at 50 µM (Smad3; [4]): 1 to 10%

C[C@@H](NC(=O)[C@@H](N)CC(=O)O)C(=O)NC1C(C)(C)SC1(C)C [Compound 38]
inhibition of the expression of collagen I and collagen III at the mRNA level [1]: could inhibit | inhibition at 50 µM (COL1A1; [3]): 25 to 50% | inhibition at 50 µM (COL3A1; [2]): 1 to 10%

CCOC(=O)C[C@H](N)C(=O)O [Compound 35, 4-ethyl L-aspartic acid ester]
inhibition of the expression of collagen I and collagen III at the mRNA level [1]: could inhibit | inhibition at 50 µM (COL1A1; [3]): 10 to 25% | inhibition at 50 µM (COL3A1; [2]): 1 to 10%

N[C@H](C(=O)O)[C@@H](N)C(=O)O [Compound 43]
inhibition at 50 µM (COL3A1; [2]): 1 to 10% | inhibition at 50 µM (Smad3; [4]): 1 to 10% | inhibition at 50 µM (α-SMA): 1 to 10%

COC(=O)C[C@H](NC(C)=O)C(=O)O [Compound 63, 4-methyl acetyl-L-aspartic acid ester]
inhibition of the expression of collagen I and collagen III at the mRNA level [1]: could inhibit | inhibition at 50 µM (COL3A1; [2]): 10 to 25% | inhibition at 50 µM (α-SMA): 1 to 10%

COC(=O)[C@H](CC(=O)O)NC(=O)OCc1ccccc1 [Compound 25]
inhibition at 50 µM (COL1A1; [3]): 1 to 10% | inhibition at 50 µM (α-SMA): 1 to 10%

COC(=O)C[C@H](N)C(=O)OC(C)OC(=O)[C@@H](N)CC(=O)OC [Compound 68, O′1,O1-(ethan-1,1-diyl)4-dimethyl (2S,2'S)-bis (2-aminosuccinate) hydrochloride]
inhibition at 100 µM (COL1A1; [3]): 1 to 10% | inhibition at 100 µM (COL3A1; [2]): 1 to 10% | inhibition of the expression of α-SMA at the mRNA level (α-SMA): could inhibit | inhibition at 100 µM (α-SMA): 25 to 50%

COC(=O)[C@H](CC(=O)O)NC(C)=O [Compound 65, 1-methyl acetyl-L-aspartic acid ester]
inhibition at 12.5 µM (COL1A1; [3]): 10 to 25% | inhibition at 12.5 µM (COL3A1; [2]): 1 to 10% | inhibition at 12.5 µM (α-SMA; test concentration 12.5 μM): 1 to 10%

CC(C)OC(=O)OCOC(=O)[C@@H](N)CC(=O)O [Compound 51, 1-(((isopropoxycarbonyl)oxy)methyl) L-aspartic acid ester hydrochloride]
inhibition at 50 µM (α-SMA): 1 to 10%

CC(C)(C)OC(=O)N[C@@H](CC(=O)OCc1ccccc1)C(=O)O [Compound 24]
inhibition at 50 µM (COL1A1; [3]): 1 to 10% | inhibition at 50 µM (COL3A1; [2]): 1 to 10%

O=C(O)C[C@H](NC(=O)C1CC1)C(=O)O [Compound 60, (cyclopropylcarbonyl)-L-aspartic acid]
inhibition at 50 µM (Smad3; [4]): 1 to 10% | inhibition at 50 µM (α-SMA): 1 to 10%

CC(C)OC(=O)C[C@H](N)C(=O)OCOC(=O)[C@@H](N)CC(=O)OC(C)C [Compound 73, 4-diisopropyl O′1,O1-methylene (2S,2'S)-bis (2-aminosuccinate) hydrochloride]
inhibition of the expression of α-SMA at the mRNA level (α-SMA): could inhibit | inhibition at 12.5 µM (α-SMA; test concentration 12.5 μM): 10 to 25%

COC(=O)C[C@H](N)C(=O)OCOC(=O)C[C@H](N)C(=O)OC.Cl [Compound 74, 4-((((S)-2-amino-4-methoxy-4-oxobutyryl)oxy)methyl)1-methyl L-aspartic acid ester hydrochloride]
inhibition of the expression of collagen I and collagen III at the mRNA level [1]: could inhibit | inhibition at 100 µM (COL1A1; [3]): 25 to 50% | inhibition at 100 µM (COL3A1; [2]): 25 to 50% | inhibition at 100 µM (α-SMA): 25 to 50%

COC(=O)C[C@H](N)C(=O)OC.Cl [Compound 7]
IL-1β mRNA inhibition rate (IL-1β; test concentration 25 μM): E (E represented that the inhibition rate was 1% to 10%)

CCOC(=O)C[C@H](N)C(=O)OCOC(=O)[C@@H](N)CC(=O)OCC [Compound 72, hydrochloride]
inhibition of the expression of collagen I and collagen III at the mRNA level [1]: could inhibit | inhibition at 25 µM (COL1A1; Homo sapiens, LX-2, test concentration 25 μM, read-out: COL1A1 mRNA inhibition rate): 25 to 50% | inhibition at 25 µM (COL3A1; Homo sapiens, LX-2, test concentration 25 μM, read-out: COL3A1 mRNA inhibition rate): 25 to 50%

COC(=O)[C@H](Cc1ccccc1)NC(=O)C[C@H](N)C(=O)O [Compound 32]
inhibition at 50 µM (COL1A1; [3]): 10 to 25% | inhibition at 50 µM (COL3A1; [2]): 1 to 10% | inhibition at 50 µM (α-SMA): 1 to 10%

CCC(=O)N[C@@H](CC(=O)O)C(=O)OC [Compound 66, 1-methyl propionyl-L-aspartic acid ester]
inhibition of the expression of collagen I and collagen III at the mRNA level [1]: could inhibit | inhibition at 50 µM (COL1A1; [3]): 25 to 50%

CCOC(=O)C[C@H](N)C(=O)OCOC(=O)[C@@H](N)CC(=O)OC [Compound 70, 1-((((S)-2-amino-4-ethoxy-4-oxobutyryl)oxy)methyl) 4-methyl L-aspartic acid ester hydrochloride]
inhibition of the expression of collagen I and collagen III at the mRNA level [1]: could inhibit | inhibition at 100 µM (COL1A1; [3]): 1 to 10% | inhibition at 100 µM (COL3A1; [2]): 10 to 25% | inhibition of the expression of α-SMA at the mRNA level (α-SMA): could inhibit | inhibition at 100 µM (α-SMA): 50 to 75%
